Data as given in patent US11001570B2, “6-amino-quinolinone compounds and derivatives as BCL6 inhibitors” (Boehringer Ingelheim International GmbH, priority 2016, dated 2021).

Target: T1, BCL6::BCOR (Homo sapiens, UniProt P41182, C67R/C84N/C8Q)
T1 construct: BCL6 (amino acids 5 to 129, with the following changes to the natural protein); made in house; host or cells: E. coli
Assay: BCL6::BCOR ULight TR-FRET assay
Format: binding
Source text: Biological Methods BCL6::BCOR ULight TR-FRET Assay:
Biotinylated BCL6 protein corresponding to BCL6 (amino acids 5 to 129, with the following changes to the natural protein: C8Q, C67R, C84N) is expressed in E. coli with a carboxy-terminal Avi tag (amino acid sequence […]). The BCOR ULight peptide uses a direct carboxy-terminal ULight tag (PerkinElmer). The sequence of the peptide is CRSEIISTAPSSWVVPGP, with the amino terminus acetylated and the ULight tag attached to the cysteine. Compounds are dispensed onto assay plates (Proxiplate 384 PLUS, white, PerkinElmer) using an Access Labcyte Workstation with the Labcyte Echo 55×from a DMSO solution. For the chosen highest assay concentration of 100 μM, 150 nl of compound solution are transferred from a 10 mM DMSO compound stock solution. A series of 11 concentrations is transferred for each compound at which each concentration is fivefold lower than the previous one. DMSO is added such that every well has a total of 150 nl compound solution. 5 μL of 1 nM BCL6 protein in assay buffer (50 mM HEPES pH 7.3; 125 mM NaCl; 1 mM GSH; 0.01% Triton-X 100; 0.03% BSA) are added to the 150 nl of compounds. After 30 minutes incubation time at room temperature, 10 μL of a mix containing BCOR ULight peptide (100 nM final assay concentration) and Streptavidin-Europium (0.75 nM final assay concentration) are added. Plates are kept at room temperature. After 240 minutes incubation time the TR-FRET signal is measured in a PerkinElmer Envision HTS Multilabel Reader using the TR-FRET LANCE Ultra specs of PerkinElmer. Each plate contains negative controls (diluted DMSO instead of test compound; BCOR peptide and Streptavidin Europium mix with BCL6 protein) and positive controls (diluted DMSO instead of test compound; BCOR peptide and Streptavidin-Europium mix without BCL6 protein). Negative and positive control values are used for normalization.

IC50 | Compound
62 nM | CNC(=O)COc1cc2cc(Nc3nc(N4CCC(C(F)(F)F)CC4)ncc3Cl)ccc2n(C)c1=O [Compound I-33]
6 nM | CNC(=O)COc1cc2cc(Nc3nc(N4CCC(Cl)CC4)ncc3Cl)ccc2n(C)c1=O [Compound I-34]
8 nM | CNC(=O)COc1cc2cc(Nc3nc(N4CCC(C)CC4)ncc3Cl)ccc2n(C)c1=O [Compound I-35]
5 nM | CNC(=O)COc1cc2cc(Nc3nc(N4CCC5(CCN(C)CC5)CC4)ncc3Cl)ccc2n(C)c1=O [Compound I-36]
7 nM | CNC(=O)COc1cc2cc(Nc3nc(N4CCC(N5CCCCCC5)CC4)ncc3Cl)ccc2n(C)c1=O [Compound I-37]
35 nM | CCN1CCN(C2CCN(c3ncc(Cl)c(Nc4ccc5c(c4)cc(OCC(=O)NC)c(=O)n5C)n3)CC2)CC1 [Compound I-38]
9 nM | CNC(=O)COc1cc2cc(Nc3nc(N4CCC(N5CCC(C)CC5)CC4)ncc3Cl)ccc2n(C)c1=O [Compound I-40]
8 nM | CNC(=O)COc1cc2cc(Nc3nc(N4CCC(N5CCCC5)CC4)ncc3Cl)ccc2n(C)c1=O [Compound I-41]
9 nM | CNC(=O)COc1cc2cc(Nc3nc(N4CCC(N5CCCCC5)CC4)ncc3Cl)ccc2n(C)c1=O [Compound I-42]
6 nM | CNC(=O)COc1cc2cc(Nc3nc(N4CCC(CCN5CCCCC5)CC4)ncc3Cl)ccc2n(C)c1=O [Compound I-43]
9 nM | CNC(=O)COc1cc2cc(Nc3nc(N4CCC(CN5CCOCC5)CC4)ncc3Cl)ccc2n(C)c1=O [Compound I-44]
7 nM | CNC(=O)COc1cc2cc(Nc3nc(N4CCC(N(C)C)CC4)ncc3Cl)ccc2n(C)c1=O [Compound I-45]
13 nM | CNC(=O)COc1cc2cc(Nc3nc(N4CCCN(C)CC4)ncc3Cl)ccc2n(C)c1=O [Compound I-46]
5 nM | CNC(=O)COc1cc2cc(Nc3nc(N4CCc5cnccc5C4)ncc3Cl)ccc2n(C)c1=O [Compound I-47]
11 nM | CNC(=O)COc1cc2cc(Nc3nc(N4C[C@@H](C)N(C)[C@@H](C)C4)ncc3Cl)ccc2n(C)c1=O [Compound I-48]
11 nM | CNC(=O)COc1cc2cc(Nc3nc(N4CCN(C)C(C)(C)C4)ncc3Cl)ccc2n(C)c1=O [Compound I-49]
5 nM | CNC(=O)COc1cc2cc(Nc3nc(N4CCOC(C)(C)C4)ncc3Cl)ccc2n(C)c1=O [Compound I-50]
6 nM | CNC(=O)COc1cc2cc(Nc3nc(N4CCO[C@@H](C)C4)ncc3Cl)ccc2n(C)c1=O [Compound I-51]
7 nM | CNC(=O)COc1cc2cc(Nc3nc(N4CCO[C@H](C)C4)ncc3Cl)ccc2n(C)c1=O [Compound I-52]
6 nM | CNC(=O)COc1cc2cc(Nc3nc(N4C[C@@H](C)O[C@@H](C)C4)ncc3Cl)ccc2n(C)c1=O [Compound I-53]
5 nM | CNC(=O)COc1cc2cc(Nc3nc(N4CCOCC4)ncc3Cl)ccc2n(C)c1=O [Compound I-54]
5 nM | CNC(=O)COc1cc2cc(Nc3nc(N4CCCC(F)CC4)ncc3Cl)ccc2n(C)c1=O (centres unmarked) [Compound I-55]
4 nM | CNC(=O)COc1cc2cc(Nc3nc(N4CCC(C(C)(C)C(=O)O)CC4)ncc3Cl)ccc2n(C)c1=O [Compound I-56]
6 nM | CNC(=O)COc1cc2cc(Nc3nc(N4CCC(N5C[C@H]6CC[C@@H](C5)O6)CC4)ncc3Cl)ccc2n(C)c1=O [Compound I-57]
7 nM | CNC(=O)COc1cc2cc(Nc3nc(N4CCC(N(C)CC(F)(F)F)CC4)ncc3Cl)ccc2n(C)c1=O [Compound I-58]
11 nM | CNC(=O)COc1cc2cc(Nc3nc(N4CCC(N5CC6CCC5CC6)CC4)ncc3Cl)ccc2n(C)c1=O [Compound I-59]
6 nM | CNC(=O)COc1cc2cc(Nc3nc(N4CC5CC4CC5(F)F)ncc3Cl)ccc2n(C)c1=O (centres unmarked) [Compound I-60]
4 nM | CNC(=O)COc1cc2cc(Nc3nc(N4CCN(CC(=O)O)C(=O)C4)ncc3Cl)ccc2n(C)c1=O [Compound I-61]
4 nM | CNC(=O)COc1cc2cc(Nc3nc(N4CCC(C(=O)O)CC4)ncc3Cl)ccc2n(C)c1=O [Compound I-62]
